# Measured values reported in PubChem BioAssay (NCI).
#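 A five-concentration, 48-hour dose response in 96-well plates underlies each endpoint, interpolated linearly between surrounding concentrations. TGI denotes the concentration required for complete inhibition of growth.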
# Experiments:
# Test in all cases: DTP human tumour cell line panel, 48 h
# CCRF-CEM leukemia = tested on: CCRF-CEM leukemia
# HS 578T breast = tested on: HS 578T breast
# LOX IMVI melanoma = tested on: LOX IMVI melanoma
# ACHN renal = tested on: ACHN renal
# SN12C renal = tested on: SN12C renal
# HL-60(TB) leukemia = tested on: HL-60(TB) leukemia
# MDA-N = tested on: MDA-N
# DU-145 prostate = tested on: DU-145 prostate
# CAKI-1 renal = tested on: CAKI-1 renal
# SF-295 CNS = tested on: SF-295 CNS
# OVCAR-3 ovarian = tested on: OVCAR-3 ovarian
# HT29 colon = tested on: HT29 colon
# BT-549 breast = tested on: BT-549 breast
# OVCAR-4 ovarian = tested on: OVCAR-4 ovarian
# MALME-3M melanoma = tested on: MALME-3M melanoma
# SF-539 CNS = tested on: SF-539 CNS
# MDA-MB-231 breast = tested on: MDA-MB-231 breast
# SNB-75 CNS = tested on: SNB-75 CNS
# HCC-2998 colon = tested on: HCC-2998 colon
Compound,TGI (CCRF-CEM leukemia) [µM],TGI (HS 578T breast) [µM],TGI (LOX IMVI melanoma) [µM],TGI (ACHN renal) [µM],TGI (SN12C renal) [µM],TGI (HL-60(TB) leukemia) [µM],TGI (MDA-N) [µM],TGI (DU-145 prostate) [µM],TGI (CAKI-1 renal) [µM],TGI (SF-295 CNS) [µM],TGI (OVCAR-3 ovarian) [µM],TGI (HT29 colon) [µM],TGI (BT-549 breast) [µM],TGI (OVCAR-4 ovarian) [µM],TGI (MALME-3M melanoma) [µM],TGI (SF-539 CNS) [µM],TGI (MDA-MB-231 breast) [µM],TGI (SNB-75 CNS) [µM],TGI (HCC-2998 colon) [µM]
CC#C[C@]1(O)CCC2[C@@H]3CCC4=CC(=O)CCC4=C3[C@@H](c3ccc(N(C)C)cc3)C[C@@]21C (stereo partly specified),37.5,33.9,33.7,> 100,52,38,49.3,73.1,33,30.1,23.5,28.7,50.7,33.5,42,28.5,35.4,–,–
CC(=O)C1=C(C)O[C@@H]2O[C@H](COCc3ccccc3)[C@@H](OCc3ccccc3)[C@H](O)[C@@H]2S1,16.8,39.9,38.9,52.5,37.6,39.7,51.7,58.9,> 100,31.3,29.4,43.2,46.4,73.7,44.5,42.2,40.1,77.1,–
COC(=O)CN(CC(=O)NCCCBr)C1CCCCC1N(CC(=O)OC)CC(=O)OC (stereo unspecified),> 100,> 100,> 100,> 100,> 100,> 100,> 100,> 100,> 100,> 100,> 100,> 100,> 100,> 100,–,> 100,> 100,64.9,> 100
CC(C)C(Nc1ncnc2nc[nH]c12)C(=O)O (stereo unspecified),> 100,> 100,> 100,> 100,> 100,> 100,> 100,> 100,> 100,> 100,> 100,> 100,> 100,> 100,> 100,–,> 100,> 100,–
Cn1c(-c2ccc[se]2)ccc1-c1ccc(C=O)[se]1,14.1,> 89.9,30.1,> 100,> 67.9,> 100,> 100,> 100,0.738,58.8,5.71,> 100,65.4,> 61.1,–,23,> 100,> 65.1,> 53.5
C/C=C1/CN2CCC34c5ccccc5N(C)C23C2CC1C4(C(=O)OC)C(OC(C)=O)O2 (stereo unspecified),> 100,> 100,> 100,> 100,> 100,> 100,> 100,> 100,> 100,> 100,> 100,> 100,> 100,> 100,–,> 100,> 100,> 100,> 100
CCOC(=O)c1c(NS(=O)(=O)c2ccc(C)cc2)sc2c1CCCC2,> 100,> 100,–,> 100,> 100,> 100,> 100,> 100,> 100,> 100,47.5,47.6,> 100,–,–,> 100,72.8,66.7,–
O[C@@H]1C[C@H](Cl)c2c(Cl)sc(Cl)c21,> 100,> 100,> 100,> 100,> 100,–,> 100,> 100,> 100,> 100,> 100,> 100,> 100,> 100,> 100,> 100,> 100,> 100,> 100
O=C1c2ccccc2C(=O)N1n1c(Cc2ccc(Cl)cc2)n[nH]c1=O,> 100,> 100,> 100,> 100,> 100,–,> 100,> 100,> 100,> 100,> 100,> 100,> 100,> 100,> 100,> 100,> 100,> 100,> 100
CCN1c2ccccc2NC(=S)c2c1n[nH]c2-c1ccccc1,49.4,> 100,> 100,> 100,> 100,29.9,32.6,> 100,> 100,59.3,> 100,> 100,> 100,> 100,–,> 100,61.8,> 100,19.3
Clc1cc(-c2ccccc2)nc(Nc2nc3ccccc3[nH]2)n1,27.6,80.2,–,33.3,63,> 100,38.7,> 100,3.95,> 100,–,45.6,52.9,33,69.1,> 100,33.9,> 100,–
Cc1cc2c(c(C(=O)NCC(=O)N[C@@H](C)C(=O)OCc3ccccc3)c1)Oc1c(cc(C)cc1C(=O)NCC(=O)N[C@@H](C)C(=O)OCc1ccccc1)S2,> 100,80.1,–,> 100,> 100,–,> 100,> 100,> 100,> 100,> 100,> 100,> 100,> 100,44.2,–,> 100,46.1,> 100
CSc1ncc2c(n1)-c1ccccc1OC2N1CCOCC1 (stereo unspecified),> 100,> 100,> 100,> 100,> 100,83.9,> 100,> 100,> 100,> 100,> 100,> 100,> 100,> 100,–,> 100,> 100,> 100,–
COc1cc(C2S/C(=C/c3ccccc3)C(=O)N2Cc2ccccc2)cc(OC)c1OC (stereo unspecified),87.2,> 100,> 100,> 100,> 100,> 100,52.6,> 100,> 100,> 100,–,> 100,> 100,> 100,–,–,> 100,73.3,69.4
O=C(NC(=S)Nc1ccc([N+](=O)[O-])cc1)c1ccc2c(c1)Sc1ccccc1O2,> 100,79,> 100,> 100,> 100,> 100,> 100,> 100,> 100,> 100,> 100,> 100,> 100,–,> 100,> 100,> 100,29.6,–
O=c1c2c3c(sc2nc2n1N=CN(c1ccccc1)C2)CCCC3,> 100,> 100,> 100,> 100,> 100,–,> 100,> 100,> 100,> 100,> 100,> 100,> 100,> 100,> 100,–,> 100,> 100,> 100
Cc1cc2nc3c(C#N)c4c(c(Nc5ccc(F)cc5)n3c2cc1C)CCC4,> 100,> 100,> 100,> 100,> 100,> 100,> 100,> 100,> 100,> 100,> 100,> 100,> 100,> 100,> 100,> 100,> 100,> 100,–
Cc1ncc([N+](=O)[O-])n1CC[N+](C)([O-])CCCCn1ccnc1[N+](=O)[O-] (stereo unspecified),> 100,> 100,> 100,> 100,> 100,> 100,> 100,> 100,> 100,> 100,> 100,> 100,> 100,> 100,> 100,> 100,> 100,> 100,–
CN(C)CN1CSC(=S)N(CN(C)C)C1,> 100,> 100,> 100,> 100,> 100,–,> 100,> 100,> 100,> 100,> 100,> 100,> 100,> 100,> 100,–,> 100,> 100,> 100
Cc1nn(C(=O)c2ccccc2O)c2c1C(c1ccc(O)cc1O)SC(N)=N2 (stereo unspecified),> 10,8.84,> 10,> 10,> 10,> 10,> 10,> 10,> 10,> 10,> 10,> 10,8.39,> 10,> 10,> 10,> 10,> 10,–
CC(=O)OCC1OC(N2C(=O)NC(=O)C3C=C4CCCCC4=CC32)CC1OC(C)=O (stereo unspecified),–,> 100,> 100,> 100,> 100,> 100,> 100,> 100,–,> 100,> 100,> 100,> 100,> 100,> 100,> 100,> 100,> 100,–
